According to ChEMBL document CHEMBL1131012, “Heteroaryl analogues of AMPA. 2. Synthesis, absolute stereochemistry, photochemistry, and structure-activity relationships” (J Med Chem, 1998):

Experiments:
[1] = biological target: T1, Glutamate receptor ionotropic, AMPA (Rattus norvegicus, UniProt P19490+P19491+P19492+P19493)
Description: Ability to inhibit the binding of [3H]AMPA radioligand to Ionotropic glutamate receptor AMPA in rat brain membranes.

[2] = biological target: Glutamate NMDA receptor; assay: Ability to inhibit the binding of [3H]CPP radioligand to N-methyl-D-aspartate glutamate receptor in rat brain membranes.; type: cell membranes
[3] = biological target: T1, Glutamate receptor ionotropic, AMPA; remark: listed apart in the source
Description: Agonist effect for Ionotropic glutamate receptor AMPA was determined from in vitro electrophysiology studies using rat cortical wedge preparation.

[4] = biological target: Glutamate receptor ionotropic, kainate; assay: Ability to inhibit the binding of [3H]-kainic acid radioligand to Ionotropic glutamate receptor kainate in rat brain membranes.; type: cell membranes

Compound | IC50 [1] [µM] | IC50 [2] [µM] | EC50 [3] [µM] | IC50 [4] [µM]
NC(Cc1c(O)noc1-c1nccs1)C(=O)O (stereo unspecified) | 0.094 | > 100 | 2.3 | 4.9
NC(Cc1c(O)noc1-c1cccnc1)C(=O)O (stereo unspecified) | > 100 | > 100 | > 1000 | > 100
N[C@H](Cc1c(O)noc1-c1ccccn1)C(=O)O | > 100 | > 100 | > 100 | > 100
N[C@H](Cc1c(O)noc1-c1ccccc1)C(=O)O | – | – | > 100 | –
NC(Cc1c(O)noc1-c1ccc(Br)o1)C(=O)O (stereo unspecified) | 12 | > 100 | 160 | > 100
Cc1cccc(-c2onc(O)c2CC(N)C(=O)O)n1 (stereo unspecified) | > 100 | > 100 | > 1000 | > 100
NC(Cc1c(O)noc1-c1ccc2ccccc2n1)C(=O)O (stereo unspecified) | > 100 | > 100 | > 1000 | > 100
N[C@@H](Cc1c(O)noc1-c1ccccn1)C(=O)O | 0.19 | > 100 | 4.5 | > 100
N[C@@H](Cc1c(-c2ccccc2)o[nH]c1=O)C(=O)O | 5.5 | – | – | –
N[C@H](Cc1c(O)noc1-c1ccco1)C(=O)O | 100 | > 100 | > 1000 | > 100
NC(Cc1c(O)noc1-c1ccccn1)C(=O)O (stereo unspecified) | 0.57 | > 100 | 7.4 | > 100
NC(Cc1c(O)noc1-c1ccncc1)C(=O)O (stereo unspecified) | 5.5 | > 100 | 96 | > 100
NC(Cc1c(O)noc1-c1ccco1)C(=O)O (stereo unspecified) | 0.15 | > 100 | 1.7 | > 100
N[C@@H](Cc1c(O)noc1-c1ccco1)C(=O)O | 0.11 | > 100 | 0.71 | > 100
C=C(C)[C@H]1CN[C@H](C(=O)O)[C@H]1CC(=O)O [KAINIC ACID] | – | > 100 | – | –
